Measured values as given in patent US5204323A, “Heparin and hirudin antidotal compositions and methods” (Ciba-Geigy Corporation, priority 1988, dated 1993).

Tests used:
[1] = test system: Factor VIII levels in human plasma; test: DDAVP infusion into human volunteers, Factor VIII levels in plasma; format: in vivo; settings: DDAVP 0.3 mg/kg in sterile saline infused over 15 minutes, compared to volume matched saline controls, FIG. 7
Experimental: (§1) 1-Deamino-8-D-arginine vasopressin (DDAVP) ([…] in sterile saline) is infused into human volunteers over a 15 minute period between times 0-15 minutes. Subsequently blood samples are taken and FVIII levels measured (Langdell et al. (1953) J. Lab. Chim. Med. 41, 637) and the correspond. ing effect on hirudin induced elevation of APTT in vitro asessed. The results are shown in FIG. 7 which represent a typical example of ten volunteer studies. […] Results are compared to volume matched saline controls.

[2] = test system: hirudin induced elevation of APTT in human plasma; test: Hirudin induced elevation of APTT in vitro in blood samples taken after DDAVP infusion; format: in vivo; settings: blood samples of human volunteers after DDAVP infusion (0.3 mg/kg, 15 minutes); desulphatohirudin HV1 added in vitro; FIG. 7
Experimental: The anticoagulant effects of hirudin are measured in vitro on human plasma to which various concentrations of hirudin (in saline) have been added, one minute prior to APTT determination (Activated partial thromboplastin time; means for measuring blood clotting according to Basu et al. (1972) N. Engl. J. Med. 287, 324). Different concentrations of FVIII (reconstituted in water in accordance with the manufacturers specification) are added and the results are shown in FIG. 3 of the accompanying drawings. The anticoagulant effects of hirudin are measured by APTT.
as §1

NC(=O)CC[C@@H]1NC(=O)[C@H](Cc2ccccc2)NC(=O)[C@H](Cc2ccc(O)cc2)NC(=O)CCSSC[C@@H](C(=O)N2CCC[C@H]2C(=O)N[C@H](CCCN=C(N)N)C(=O)NCC(N)=O)NC(=O)[C@H](CC(N)=O)NC1=O [DDAVP, 1-deamino-8-D-arginine vasopressin]
FVIII levels [1]: raised FVIII levels
effect on hirudin induced elevation of APTT in vitro [2]: reduces the degree of anticoagulation induced by hirudin
